Drawing on patent US20110224240A1 (Myrexis, Inc., priority 2010, published 2011), this text covers IC50 for three molecules.

Holding throughout (assay): Multidrug resistant cell assay, cytotoxicity
The test system of one assay is NCI/ADR-Res (MDR-1). The conditions noted are these: 72 h, read-out: Various MDR Cell Line Cytotoxicity IC50.
Another assay deals with P388. Type of assay: cell-based, murine. The following applies: Mus musculus; P388; 72 hours; read-out: Various MDR Cell Line Cytotoxicity IC50.
A further assay has as its system P388/ADR (MDR-1). Type of assay: cell-based. The following applies: 72 hours, read-out: Various MDR Cell Line Cytotoxicity IC50.
For another assay, the system named is MCF-7. Type of assay: cell-based. The conditions noted are these: Homo sapiens, MCF7, 72 h, read-out: Various MDR Cell Line Cytotoxicity IC50.
For a further assay, the system named is MCF-7/MX (BCRP-1). Type of assay: cell-based. The conditions noted are these: MCF7/MX, 72 h, read-out: Various MDR Cell Line Cytotoxicity IC50.
The subject of another assay is MCF-7/VP (MRP-1). The conditions noted are these: Homo sapiens, MCF7-VP, 72 h, read-out: Various MDR Cell Line Cytotoxicity IC50.

Structures are written as SMILES.

Description for P388/ADR (MDR-1): P388/ADR cell lines were obtained from American Type Culture Collection (Manassas, Va.) and maintained in RPMI-1640 media supplemented with 10% FCS, 10 units/ml penicillin and streptomycin, 2 mM Glutamax and 1 mM sodium pyruvate (Invitrogen Corporation, Carlsbad, Calif.). […] Cells were allowed to adhere to the plate overnight and then incubated with the compound at final concentrations ranging from 0.13 nM to 10 uM for 72 hours. Cell viability was then assessed using the ATP-lite reagent (Perkin Elmer, Foster City, Calif.). Plates were read on a Wallac Topcount luminescence reader (Perkin Elmer, Foster City, Calif.) and the results graphed in Prism software (Graphpad Software, Inc., San Diego, Calif.). Non-linear regression with variable slope analysis was performed to obtain IC50 concentration values.

As to `CC(=O)O[C@@]12CO[C@@H]1C[C@H](O)[C@@]1(C)C(=O)[C@H](O)C3=C(C)[C@@H](OC(=O)[C@H](O)[C@@H](NC(=O)OC(C)(C)C)c4ccccc4)C[C@@](O)([C@@H](OC(=O)c4ccccc4)[C@H]21)C3(C)C` [Docetaxel, docetaxel], the IC50 turned out to be 900 nM in the assay on NCI/ADR-Res (MDR-1), 3.3 nM in the assay on P388, 200 nM with P388/ADR (MDR-1) and 13 nM with MCF-7.
With `COc1cccc2c1C(=O)c1c(O)c3c(c(O)c1C2=O)C[C@@](O)(C(=O)CO)C[C@@H]3O[C@H]1C[C@H](N)[C@@H](O)[C@H](C)O1` [Epirubicin, epirubicin, reference compound], the IC50 in the assay on MCF-7/MX (BCRP-1) is 400 nM; in the assay on MCF-7/VP (MRP-1) it was 2100 nM; in the assay with MCF-7, 160 nM.
Regarding `CC[C@]1(O)C[C@@H]2CN(CCc3c([nH]c4ccccc34)[C@@](C(=O)OC)(c3cc4c(cc3OC)N(C)[C@H]3[C@@](O)(C(=O)OC)[C@H](OC(C)=O)[C@]5(CC)C=CCN6CC[C@]43[C@@H]65)C2)C1` [Vinblastine, vinblastine], the IC50 worked out at 100 nM with NCI/ADR-Res (MDR-1), 0.5 nM with P388, 8.3 nM in the assay on P388/ADR (MDR-1) and 1.4 nM with MCF-7.
